Among the test systems are SK-OV-3; NCI-H226; 786-0; HL-60; LOX IMVI; OVCAR-8; HCC 2998; MDA-MB-435; HCT-15; K562; SF-539; IGROV-1; A498; HOP-62; SN12C; M14; CCRF-CEM; RXF 393; SW-620.
Holding throughout (test): NCI anticancer screen, dose series, 48 h

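Test compounds were applied to cells in 96-well plates for 48 hours at 5 doses. The concentration for 50% growth inhibition is given as GI50.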 Calls of active or inactive are those of the source. Rule as the data show it: active = GI50 up to about 1.1 µM and inactive = higher.

`CCOc1cc2c(cc1O)/C(=N\O)C[C@@H]1[C@@H]2CC[C@]2(C)[C@@H](O)CC[C@@H]12`: the GI50 was 0.0374 µM (active) in the experiment on SK-OV-3; 0.0817 µM (active) in the experiment with NCI-H226; < 0.0208 µM (active) in the experiment on 786-0; < 0.0155 µM (active) in the experiment on HL-60; < 0.0363 µM (active) in the experiment on LOX IMVI; < 0.028 µM (active) with OVCAR-8. For the same molecule, the GI50 in the experiment on HCC 2998 is 2.72 µM (inactive); in the experiment on MDA-MB-435 it was 0.011 µM (active); in the experiment on HCT-15, below 0.0199 µM; in the experiment on K562, < 0.0173 µM (active); in the experiment with SF-539, 0.00256 µM (active); in the experiment with IGROV-1, 0.628 µM (active). The GI50 is < 0.0272 µM (active) in the experiment on A498, < 0.0201 µM (active) in the experiment on HOP-62, < 0.0216 µM (active) in the experiment with SN12C and 0.0144 µM (active) in the experiment on M14.
As to `CC1(C)COCN1COC1CCCCC1`, the GI50 in the experiment on SK-OV-3 was > 100 µM (inactive); in the experiment with NCI-H226 it was > 100 µM (inactive); in the experiment on CCRF-CEM, 4.91 µM (inactive); with 786-0, > 100 µM (inactive); with RXF 393, > 100 µM (inactive); with OVCAR-8, > 100 µM (inactive). For the same molecule, the GI50 in the experiment on HCC 2998 is > 100 µM (inactive); with MDA-MB-435 it was > 100 µM (inactive); in the experiment with HCT-15 it was above 100 µM; in the experiment on K562, 92.7 µM (inactive); in the experiment on SF-539, > 100 µM (inactive); in the experiment with IGROV-1, > 100 µM (inactive). In addition, the GI50 with A498, in the experiment on HOP-62, in the experiment with SW-620, in the experiment on SN12C and in the experiment with M14 was > 100 µM (inactive) throughout.
As for `O=C(Cc1ccccc1CCO)NCCc1ccccc1`, the GI50 in the experiment with SK-OV-3, in the experiment on NCI-H226, in the experiment on CCRF-CEM, in the experiment on 786-0, in the experiment on HL-60 and in the experiment with RXF 393 was > 100 µM (inactive) throughout. Moreover, the GI50 in the experiment on OVCAR-8 was > 100 µM (inactive); in the experiment with HCC 2998 it was > 100 µM (inactive); in the experiment with MDA-MB-435, > 100 µM (inactive); with HCT-15 it was above 100 µM; with K562, > 100 µM (inactive); with SF-539, > 100 µM (inactive). For the same molecule, the GI50 with IGROV-1, in the experiment with A498, with HOP-62, in the experiment on SW-620, in the experiment with SN12C and in the experiment on M14 was > 100 µM (inactive) throughout.
As for `COc1ccc(NC(=O)C2=C(SC)C(=O)N=C2N)cc1`, the GI50 in the experiment on SK-OV-3, in the experiment with NCI-H226, with CCRF-CEM, in the experiment on 786-0, with HL-60 and with LOX IMVI was > 100 µM (inactive) in each case. The GI50 is > 100 µM (inactive) with RXF 393; > 100 µM (inactive) in the experiment on OVCAR-8; > 100 µM (inactive) in the experiment on HCC 2998; > 100 µM (inactive) in the experiment on MDA-MB-435; above 100 µM with HCT-15; > 100 µM (inactive) with K562. For the same molecule, the GI50 with IGROV-1 is 61.7 µM (inactive); with A498 it was > 100 µM (inactive); in the experiment with HOP-62, > 100 µM (inactive); in the experiment with SW-620 it was > 100 µM (inactive).
For `O=C1/C(=C/c2ccc(O)c(CN3CCCCC3)c2)CCC/C1=C\c1ccc(O)c(CN2CCCCC2)c1`, the GI50 is 8.53 µM (inactive) in the experiment on SK-OV-3; 15.5 µM (inactive) in the experiment on NCI-H226; 3.32 µM (inactive) in the experiment on CCRF-CEM; 3.52 µM (inactive) with 786-0; 3.48 µM (inactive) in the experiment on HL-60; 7.74 µM (inactive) with LOX IMVI. The GI50 was 3.24 µM (inactive) in the experiment on RXF 393; 4.48 µM (inactive) in the experiment with OVCAR-8; 5.64 µM (inactive) with HCC 2998; 4.66 µM (inactive) with MDA-MB-435; 5.37 µM in the experiment on HCT-15; 1.99 µM (inactive) with K562. The GI50 in the experiment with IGROV-1 was 5.75 µM (inactive); in the experiment with A498 it was 12.8 µM (inactive); in the experiment with HOP-62 it was 5.04 µM (inactive); with SW-620, 5.52 µM (inactive); in the experiment on SN12C it was 8.79 µM (inactive); in the experiment on M14, 16.1 µM (inactive).
As for `C/C(=N\Nc1nc2cccnc2s1)c1ccccn1`, the GI50 in the experiment with SK-OV-3 is 0.0902 µM (active); in the experiment on NCI-H226, < 0.0155 µM (active); in the experiment with CCRF-CEM it was < 0.01 µM (active); in the experiment with 786-0, 0.0512 µM (active); with HL-60, < 0.01 µM (active); in the experiment with RXF 393, 1.06 µM (active). The GI50 with OVCAR-8 was < 0.01 µM (active); in the experiment with HCC 2998 it was 1.07 µM (active); in the experiment with MDA-MB-435 it was 0.8 µM (active); with HCT-15, below 0.0218 µM; in the experiment with K562, < 0.0149 µM (active); with SF-539 it was 0.124 µM (active). For the same molecule, the GI50 in the experiment on IGROV-1 was < 0.0141 µM (active); in the experiment with A498, > 100 µM (inactive); with HOP-62, 0.401 µM (active); with SW-620, < 0.0143 µM (active); with SN12C it was < 0.01 µM (active); in the experiment with M14, < 0.01 µM (active).
Take `COc1ccc(/C=N\N(C)Cc2cccc3ccsc23)cc1`: the GI50 in the experiment on SK-OV-3, with NCI-H226, in the experiment on CCRF-CEM, in the experiment on 786-0, in the experiment on HL-60 and with LOX IMVI was > 100 µM (inactive) each time. Further, the GI50 was > 100 µM (inactive) in the experiment on RXF 393; > 100 µM (inactive) in the experiment on OVCAR-8; > 100 µM (inactive) in the experiment with HCC 2998; > 100 µM (inactive) in the experiment on MDA-MB-435; 92.9 µM in the experiment with HCT-15; 54.8 µM (inactive) in the experiment with K562. For the same molecule, the GI50 in the experiment with IGROV-1, in the experiment on A498, in the experiment with HOP-62, with SW-620, in the experiment with SN12C and with M14 was > 100 µM (inactive) throughout.
On to `COC(=O)c1cc2c(cc1Cl)Sc1nnc(Nc3ccc(C)cc3)n1S2(=O)=O`, for which the GI50 is 11.9 µM (inactive) with SK-OV-3; 12.1 µM (inactive) in the experiment on NCI-H226; 3.78 µM (inactive) in the experiment on CCRF-CEM; 7.69 µM (inactive) in the experiment on 786-0; 3.46 µM (inactive) with HL-60; 3.94 µM (inactive) in the experiment on RXF 393. Besides, the GI50 is 10.5 µM (inactive) in the experiment on OVCAR-8; 4.75 µM (inactive) in the experiment on HCC 2998; 7.19 µM (inactive) in the experiment on MDA-MB-435; 3.97 µM with HCT-15; 5.13 µM (inactive) in the experiment with K562; 1.17 µM (inactive) in the experiment with SF-539. The GI50 in the experiment on IGROV-1 was 2.15 µM (inactive); with A498, 15.2 µM (inactive); with HOP-62, 8.89 µM (inactive); in the experiment with SN12C, 18.1 µM (inactive); with M14, 12.7 µM (inactive).
For `Cn1c(C(O)C2(c3cccnc3)SCCCS2)cc2ccccc21` (configuration not stated), the GI50 is > 100 µM (inactive) with SK-OV-3; > 100 µM (inactive) in the experiment with NCI-H226; 84.7 µM (inactive) in the experiment on CCRF-CEM; > 100 µM (inactive) in the experiment with 786-0; 50.5 µM (inactive) in the experiment on HL-60; > 100 µM (inactive) in the experiment with LOX IMVI. For the same molecule, the GI50 was > 100 µM (inactive) in the experiment with OVCAR-8; > 100 µM (inactive) in the experiment with HCC 2998; 90.2 µM (inactive) in the experiment on MDA-MB-435; above 100 µM in the experiment on HCT-15; 41.1 µM (inactive) with K562; 30 µM (inactive) with IGROV-1. The GI50 with A498 is > 100 µM (inactive); with HOP-62, > 100 µM (inactive); in the experiment with SW-620, > 100 µM (inactive); with SN12C, > 100 µM (inactive); in the experiment on M14, 89.7 µM (inactive).
For the molecule `COc1cc(Oc2nc3ccccc3nc2C(=O)O)cc(OC)c1OC`, the GI50 in the experiment with SK-OV-3, with NCI-H226, in the experiment with CCRF-CEM, with 786-0, in the experiment on HL-60 and with LOX IMVI was > 100 µM (inactive) each time. For the same molecule, the GI50 in the experiment with RXF 393 is > 100 µM (inactive); in the experiment with OVCAR-8, > 100 µM (inactive); in the experiment on HCC 2998, > 100 µM (inactive); with MDA-MB-435, > 100 µM (inactive); in the experiment with HCT-15, above 100 µM; in the experiment on K562 it was > 100 µM (inactive). Besides, the GI50 with IGROV-1, in the experiment on A498, with HOP-62, with SW-620 and with M14 was > 100 µM (inactive) in each case.
Consider `CC(/C=C/c1ccccc1)=N\NC(N)=S`, for which the GI50 was 45.4 µM (inactive) in the experiment with SK-OV-3; 80 µM (inactive) in the experiment with NCI-H226; 49.7 µM (inactive) with CCRF-CEM; 34 µM (inactive) in the experiment on 786-0; 15.1 µM (inactive) in the experiment on HL-60; > 100 µM (inactive) with LOX IMVI. In addition, the GI50 in the experiment with OVCAR-8 is 39 µM (inactive); with HCC 2998 it was 21.6 µM (inactive); with MDA-MB-435 it was 28.1 µM (inactive); with HCT-15, 27.4 µM; in the experiment on SF-539, 31.7 µM (inactive); with IGROV-1, 21 µM (inactive). The GI50 in the experiment on A498 is 22.2 µM (inactive); with HOP-62, > 100 µM (inactive); in the experiment with SW-620 it was 50.4 µM (inactive); with SN12C, 42.1 µM (inactive); in the experiment with M14 it was 26.5 µM (inactive).
Regarding `O=C1C=CC(=O)C(N(CCO)CCO)=C1.O=C1C=CC2(O)OCCN(CCO)C2=C1`, the GI50 in the experiment with SK-OV-3, in the experiment with NCI-H226, in the experiment on CCRF-CEM, in the experiment on 786-0, in the experiment with HL-60 and in the experiment with LOX IMVI was > 100 µM (inactive) in each case. The GI50 in the experiment with RXF 393 was > 100 µM (inactive); in the experiment on OVCAR-8 it was > 100 µM (inactive); in the experiment on HCC 2998, > 100 µM (inactive); in the experiment with MDA-MB-435, > 100 µM (inactive); in the experiment on HCT-15 it was above 100 µM; in the experiment with K562, > 100 µM (inactive). Further, the GI50 in the experiment with IGROV-1, in the experiment with A498, in the experiment on HOP-62, in the experiment on SW-620, in the experiment on SN12C and with M14 was > 100 µM (inactive) each time.

These data come from ChEMBL document CHEMBL1201862, “PubChem BioAssay data set” (2004).
